Reference: article PMC3948684, “Approaches to Improve the Oral Bioavailability and Effects of Novel Anticancer Drugs Berberine and Betulinic Acid” (PLoS ONE, 2014)
≈ marks a conversion by molar mass, not a printed value. Blank lines part the entries; values can stand above or below the compound they belong to.

What was measured:
[1] = test system: A549 orthotopic lung tumors; assay: A549 orthotopic lung cancer model; assay type: in vivo, athymic Nu/nu mice; conditions: 100 mg/kg orally daily for 3 weeks
Protocol: (§1) A549 cells were grown in F12K Medium containing 10% FBS and standard antibiotic mix at 5% CO2 and 37°C. For orthotopic lung tumor model, mice were anesthetized with Isoflurane and a 5 mm skin incision was made to the left chest, 5 mm below the scapula. Hamilton syringes (1 ml) with 28-gauge hypodermic needles were used to inject the cell inoculums through the sixth intercostal space into the left lung. The needle was quickly advanced to a depth of 3 mm and quickly removed after the injection of the A549 cells (2 million/mouse) suspended in 100 µL PBS (pH 7.4) into the lung parenchyma. For metastatic lung tumor models H1650 cells (2 million in 100 µL PBS) were intravenously administered to mice via tail vein. […] Only cell suspensions of >95% viability as determined by tryphan blue exclusion were used. Wounds from the incisions were closed with surgical skin clips. […] Drug treatment was started 2 weeks after the tumor cell implantation. BBR free drug or SD formulation was given orally at the dose of 100 mg/kg daily for 3 weeks. […] Body weights were monitored throughout the study. Animal survival rates were recorded during the study. The lung weights and tumor volumes were used for assessment of therapeutic activity of the treatments. After sacrificing the animals lung weights and tumor nodules were recorded in metastatic tumor models.

A549 cells = assay: In vitro cytotoxicity, crystal violet staining; assay type: cell-based; conditions: Homo sapiens, BA, 72 h treatment
Protocol: (§2) NSCLC cells A549 and H1650 were plated in 96 well plates at 10,000 cells/well density. After 24 h, cells were treated with various concentrations of BBR and BA. DMSO (0.1%) treated cells were considered as control cells. After 72 h treatment, cells were fixed in 0.25% gultaraldehyde and stained with 0.05% crystal violet staining. Percent of cell viability or cell kill was calculated by considering DMSO treated control cells as 100% viable (zero % cell kill).

H1650 cells = assay: In vitro cytotoxicity, crystal violet staining; assay type: cell-based; conditions: Homo sapiens, NCI-H1650; BA, 72 h treatment
Protocol: as §2

[2] = Oral pharmacokinetic study; assay type: in vivo, Sprague Dawley rats
Protocol: Rats were fasted overnight before the start of the experiments and randomly divided into two experimental groups. […] Pharmacokinetic parameters were analyzed using non-compartmental techniques with WinNonlin® 5.0 software (Pharsight Corporation, Mountain View, CA, USA). SHAM analysis (i.e., Slope, Height, Area, and Moment) utilized plasma concentration-time data to estimate the area under the curve (AUC), apparent terminal elimination rate constant (λz), terminal elimination half-life (t1/2) and the area under the first moment of the plasma concentration–time curve (AUMC). The AUC was calculated for each rat using the piecewise log trapezoidal areas and extrapolated to infinity by dividing λz into the last measured plasma concentration (i.e. Clast/λz). From the values of AUC0_0-∞ and AUMC0-∞, the clearance (CL), mean residence time (MRT) and volume of distribution at tissue equilibrium (Vss) were calculated based on noncompartmental monoexponential assumptions as: CL = Dose/AUC, MRT≅AUMC/AUC and Vss = CL×MRT. The noncompartmental parameters were calculated for each rat before averaging dose groups. The pharmacokinetic parameters such as AUC, Cmax, t1/2, tmax, MRT, etc were compared between the free drug and SD formulations.

[3] = test system: H1650 metastatic lung tumors; assay: H1650 metastatic lung cancer model; assay type: in vivo, athymic Nu/nu mice; conditions: 100 mg/kg orally daily for 3 weeks
Protocol: as §1

[4] = test system: TUNEL positive apoptotic cells; assay: TUNEL assay on orthotopic lung tumor sections; assay type: in vivo, athymic Nu/nu mice
Protocol: Terminal deoxynucleotidyl transferase-mediated dUTP nick end labeling (TUNEL) assay was used to study the DNA fragmentation or apoptosis detection. TUNEL assay was performed on 4–5 µm thick sections as per the kit manual. Formalin-fixed tumor tissues were embedded in paraffin and sectioned ([…]). DeadEndTM Colorimetric Apoptosis Detection System (Promega, Madison, WI) allows the recognition of apoptotic nuclei in paraffin-embedded tissue sections fixed on slides according to the manufacturer's protocol. Briefly, the equilibration buffer was added to slides and incubated for 10 minutes followed by 10-minute incubation in […] proteinase K solution. The sections were washed in PBS and incubated with TdT enzyme at 37°C for 1 h in a humidified chamber for incorporation of biotinylated nucleotides at the 3-OH ends of DNA. The slides were incubated in horseradish peroxidase-labeled streptavidin to bind the biotinylated nucleotides followed by detection with stable chromagen DAB. The images on the slides were visualized with an Olympus BX40 light microscope equipped with a computer-controlled digital camera (DP71, Olympus Center Valley, PA, USA). Three slides per group were stained and apoptotic cells were identified by dark brown […] staining.

[5] = In vitro drug release of BA (USP type II paddle, HPLC); assay type: physicochemical; conditions: after 24 h; pH 5.8, 2.5% SLS, 37°C
Protocol: In vitro drug release study was conducted in PBS (pH 5.8) containing 1% volpo. Briefly, 50 mg of free drug or equivalent amount of SD form of BBR and BA were dispersed in 500 ml of release medium and the drug release profile was studied at pH 5.8. Release studies were performed according to the USP type II paddle method, at 37±0.5°C while stirring constantly at 50 rpm. Samples were withdrawn at different time points, centrifuged and drug content in the samples was analyzed by spectrometric method of analysis. The withdrawn samples were replaced by equal volumes of fresh medium maintained at the same temperature. Except replacing the 1% Volpo with 2.5% SLS, similar conditions were maintained for the in vitro drug release studies of BA in free drug and SD forms. The released BA concentrations were measured by established HPLC method.

Bcl-2 = assay: Real time PCR of tumors; assay type: in vivo, athymic Nu/nu mice; conditions: normalised to β-actin
Protocol: (§3) Total RNA was extracted from tumors using RNeasy Kit and quantified by UV method using Nanodrop system. RNA was converted to complementary DNA using RT^2 First Strand Kit and RT^2 SYBR Green ROX qPCR Mastermix as per manufacturer's instructions. p38, Phospho-JNK, Bax, Bcl-2, cleaved caspase 8, cleaved caspase 3, survivin and BAD, mRNA expressions amplification was performed on an ABI 7300 RT-PCR (Applied Biosystems, Carlsbad, CA, USA) and data analysis done with a PCR Array Data Analysis Software (SA Biosciences, Valencia, CA, USA). The mRNA levels of p38, Phospho-JNK, Bax, Bcl-2, cleaved caspase 8, cleaved caspase 3, survivin and BAD and β-actin were calculated. The β-actin was a normalization control for gene expression.

cleaved caspase-8 = assay: Real time PCR of tumors; assay type: in vivo, athymic Nu/nu mice; conditions: normalised to β-actin
Protocol: as §3

Bax = assay: Real time PCR of tumors; assay type: in vivo, athymic Nu/nu mice; conditions: normalised to β-actin
Protocol: as §3

cleaved caspase-3 = assay: Real time PCR of tumors; assay type: in vivo, athymic Nu/nu mice; conditions: normalised to β-actin
Protocol: as §3

p38 = assay: Real time PCR of tumors; assay type: in vivo, athymic Nu/nu mice; conditions: normalised to β-actin
Protocol: as §3

Phospho-JNK = assay: Real time PCR of tumors; assay type: in vivo, athymic Nu/nu mice; conditions: normalised to β-actin
Protocol: as §3

[6] = Sprague Dawley, rat, plasma, po, 100 mg/kg orally

Protocol for Caco-2 cell monolayers: Caco-2 cells (passage #29) were cultured at 37°C with culture medium replaced every 2 days in an atmosphere of 5% CO2 and 95% relative humidity. Cells were harvested upon reaching approximately 80-90% confluence with 0.25% trypsin–EDTA. Cells were grown on 1.12 cm^2 0.4 μm pore polycarbonate membrane inserts in 12 mm × 12 transwell permeable support plates (Corning, NY, USA). Caco-2 cells were seeded onto membranes at 50,000 cells/well. Individual wells received 1.5 mL of culture medium at the bottom and 0.5 mL of medium was added to the top of inserts which was changed on alternate days. Confluent monolayers were used for permeability studies at ~21 days post seeding. Transepithelial electrical resistance (TEER) of Caco-2 monolayers was measured prior to all experiments using the EVOM volt-ohm-meter (Millicell-ERS; Millipore, USA) to ensure monolayer integrity. The TEER (Ω·cm^2) values of the cell monolayers were determined by the resistance (Ω) × effective membrane area (cm^2). TEER values were measured across each cell monolayer prior to beginning the experimentation and at the last sample collection time point. Transport studies were initiated by removing culture medium from the apical (A) and basolateral (B) sides of the cell monolayer. […] The effective permeability (Peff) (cm/s) was determined using Eq. 1: […]

- CL ([2]; 100 mg/kg orally): 0.113 ± 0.0175 mL/min/kg
- AUMC (0-∞) ([2]; BA, 100 mg/kg orally): 116.04±23.13 µg.h^2/ml
- Vd ([2]; BA, 100 mg/kg orally): 0.12243 ± 0.01586 L/kg
- half-life ([2]; Sprague Dawley, rat, plasma, po, 100 mg/kg, read-out: t½ (converted)): 12.3 ± 3.68 h
- MRT [2, 6]: 15.1 ± 3.86 h
- Tmax [2, 6]: 2.36 ± 0.38 h
- AUC(0-inf) ([2]; Sprague Dawley, rat, plasma, po, BA, 100 mg/kg orally): 7260 ± 1650 ng·h/mL
- Cmax ([2]; Sprague Dawley, rat, po, BA, 100 mg/kg orally, plasma): 1160 ± 220 ng/mL
- drug release [5]: 11.3%
Compound: C=C(C)[C@@H]1CC[C@]2(C(=O)O)CC[C@]3(C)[C@H](CC[C@@H]4[C@@]5(C)CC[C@H](O)C(C)(C)[C@@H]5CC[C@]43C)[C@@H]12 [BA free drug, 3β, hydroxy-lup-20(29)-en-28-oic acid]
- lung tumor weights [1]: 404.31 ± 29.50 mg
- reduction in tumor volumes compared to untreated control [1]: 27.72%
- reduction in tumor weights compared to untreated control tumors [1]: Approximately 31.11%
- IC50 (A549 cells): 8.92 ± 1.68 µg/mL (≈ 19.5 µM)
- IC50 (H1650 cells): 7.25 ± 1.54 µg/mL (≈ 15.9 µM)
- decrease of tumor nodules in the peripheral lobes [3]: 1.31 fold
- tumor weights reduced to, compared to untreated control [3]: 75.94%
- increase in TUNEL positive apoptotic cells compared to control tumors [4]: 8.14 fold
- Bcl-2 mRNA expression down regulated compared to untreated control (Bcl-2): 1.36 fold
- cleaved caspase-8 mRNA expression higher than control (cleaved caspase-8): 1.25 fold
- Bax mRNA expression increased compared to control (Bax): 1.08 fold
- cleaved caspase-3 mRNA expression higher than control (cleaved caspase-3): 1.30 fold
- p38 mRNA expression increased compared to control (p38): 1.20 fold
- Phospho-JNK mRNA expression increased compared to control (Phospho-JNK): 1.69 fold

- mean permeability of paracellular control (Caco-2 cell monolayers): < 0.15 ×10⁻⁶ cm/s
Compound: Lucifer Yellow
